This passage reports GI50 and TGI results from PubChem BioAssay (NCI).

Test systems include MCF7 breast; T-47D breast; MDA-MB-231 breast; NCI/ADR-RES ovarian.
What all share (assay): DTP human tumour cell line panel, 48 h

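Interpolation was linear, between the two tested concentrations surrounding the appropriate level; five concentrations were tested over 48 hours in 96-well plates. GI50 is the concentration that inhibits growth by half. At the TGI there is no net growth.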 A value given as a limit tells only on which side of the number the result lay.

As usually defined, the GI50 is the concentration that inhibits growth by half. What is called TGI is the concentration giving total growth inhibition. Higher therefore signals less potent growth arrest. Turning to `NC(=S)N/N=C/c1ccc(OC(=O)COc2ccc(Cl)cc2)cn1`, the GI50 in the experiment with MCF7 breast was 3.71 µM; in the experiment with T-47D breast it was 8.62 µM; in the experiment on MDA-MB-231 breast, 6.61 µM; in the experiment with NCI/ADR-RES ovarian, 3.17 µM. Also, the TGI with MCF7 breast, in the experiment with T-47D breast, in the experiment on MDA-MB-231 breast and with NCI/ADR-RES ovarian was more than 100 µM throughout.
Take `Clc1nc(Cl)c2ncn(Cc3cccc(COc4cccc(OCc5cccc(Cn6cnc7c(Cl)nc(Cl)nc76)c5)c4)c3)c2n1`: the GI50 with MCF7 breast was 31.1 µM; in the experiment on T-47D breast, 25.8 µM; with MDA-MB-231 breast it was 27.2 µM; in the experiment with NCI/ADR-RES ovarian it was 53.1 µM. For the same molecule, the TGI in the experiment on MCF7 breast, in the experiment with T-47D breast, with MDA-MB-231 breast and with NCI/ADR-RES ovarian was more than 100 µM in each case.
For `CCc1[nH]c(=O)nc(N)c1-c1ccc(N2CCCCC2)c([N+](=O)[O-])c1`, the TGI in the experiment with MCF7 breast, with T-47D breast, in the experiment on MDA-MB-231 breast and in the experiment with NCI/ADR-RES ovarian was more than 100 µM throughout.
For the molecule `CC(=O)OC1=NN=C2COC(c3ccccc3OC(C)=O)=NN2C1`, the TGI in the experiment on MCF7 breast, in the experiment on T-47D breast, in the experiment on MDA-MB-231 breast and in the experiment with NCI/ADR-RES ovarian was more than 50 µM in each case.
Turning to `Nc1ncc(-c2cnn(CCO)c2)c2scc(-c3ccc(NC(=O)Nc4cccc(F)c4)cc3)c12`, the GI50 is 0.226 µM with MCF7 breast, 1.32 µM with T-47D breast, 1.14 µM with MDA-MB-231 breast and 2.5 µM in the experiment on NCI/ADR-RES ovarian. For the same molecule, the TGI in the experiment on MCF7 breast was determined as 3.7 µM; in the experiment with T-47D breast, 5.93 µM; in the experiment with MDA-MB-231 breast, 2.91 µM; with NCI/ADR-RES ovarian, 20.1 µM.
With `CCN(CC)CCN1CC(O)=C(c2nc(-c3ccc(Cl)cc3)cs2)C1=N`, the GI50 in the experiment with MCF7 breast is 1.42 µM; in the experiment on T-47D breast, 2.19 µM; in the experiment with MDA-MB-231 breast, 1.97 µM; with NCI/ADR-RES ovarian, 9.12 µM. The TGI in the experiment with MCF7 breast was 3.36 µM; in the experiment on T-47D breast, 5.11 µM; with MDA-MB-231 breast it was 4.1 µM; in the experiment on NCI/ADR-RES ovarian, more than 100 µM.
On to `COc1cc(C2=NN(C(C)=O)C(c3ccc(OC(C)=O)cc3OC(C)=O)O2)c(OC(C)=O)c2ccccc12` (stereo not drawn), for which the GI50 in the experiment with MCF7 breast is 2.73 µM; in the experiment with T-47D breast, 1.12 µM; in the experiment with MDA-MB-231 breast, 0.543 µM; with NCI/ADR-RES ovarian it was 0.542 µM. Also, the TGI in the experiment on MCF7 breast is 16.1 µM; in the experiment on T-47D breast, 9.97 µM; with MDA-MB-231 breast it was more than 56.4 µM; in the experiment on NCI/ADR-RES ovarian, more than 51.8 µM.
As for `Fc1cc(F)c(COc2cc(Cn3cnc4c(Cl)nc(Cl)nc43)ccc2C23CC4CC(CC(C4)C2)C3)cc1F`, the GI50 was 11 µM in the experiment on MCF7 breast, 16.7 µM in the experiment with T-47D breast, 17.5 µM in the experiment with MDA-MB-231 breast and 18.3 µM with NCI/ADR-RES ovarian. Moreover, the TGI with MCF7 breast is 27.5 µM; in the experiment on T-47D breast it was 45.1 µM; in the experiment on MDA-MB-231 breast, 32.7 µM; in the experiment with NCI/ADR-RES ovarian, 37.1 µM.
In the case of `CCN(CC)c1ccc(C(=N)c2ccc(N(CC)CC)cc2)cc1`, the GI50 was 0.349 µM with MCF7 breast, 0.311 µM in the experiment with T-47D breast, 1.15 µM in the experiment on MDA-MB-231 breast and 0.412 µM in the experiment on NCI/ADR-RES ovarian. Also, the TGI with MCF7 breast amounted to 1.78 µM; in the experiment on T-47D breast it was 1.73 µM; with MDA-MB-231 breast, 3.23 µM; in the experiment on NCI/ADR-RES ovarian it was 1.83 µM.
For `CCCCN=C(N)c1ccc(OCCSCCOc2ccc(C(N)=NCCCC)cc2)cc1`, the GI50 in the experiment on MCF7 breast is 3.34 µM; with T-47D breast it was 1.83 µM; with MDA-MB-231 breast it was 16.9 µM; in the experiment on NCI/ADR-RES ovarian, more than 100 µM. The TGI in the experiment on MCF7 breast is more than 100 µM; in the experiment on T-47D breast it was 24.8 µM; in the experiment on MDA-MB-231 breast, more than 100 µM; in the experiment on NCI/ADR-RES ovarian it was more than 100 µM.
As for `O=C(c1cccc(O)c1O)c1cn(Cc2ccc(F)cc2)c2cccc(O)c12`, the GI50 in the experiment on MCF7 breast is 2.14 µM; in the experiment with T-47D breast it was 3.16 µM; in the experiment on MDA-MB-231 breast, 5.83 µM; in the experiment on NCI/ADR-RES ovarian, 2.59 µM. Besides, the total growth inhibition concentration (TGI) is 13.1 µM in the experiment on MCF7 breast, 16.2 µM with T-47D breast, 40.2 µM with MDA-MB-231 breast and 15.2 µM with NCI/ADR-RES ovarian.
In the case of `COc1ccc(N2C(=O)C3c4[nH]c5ccc(C)cc5c4C4CCC(C(C)(C)C)CC4C3C2=O)cc1` (stereo not drawn), the TGI was more than 100 µM in the experiment with MCF7 breast, more than 100 µM in the experiment with T-47D breast, more than 100 µM in the experiment on MDA-MB-231 breast and 33.2 µM with NCI/ADR-RES ovarian.
Consider `O=C(O)CC1OCC=C2CN3CCC45c6ccccc6NC4C1C2CC35` (stereo not drawn), for which the TGI in the experiment on MCF7 breast, in the experiment with T-47D breast, in the experiment with MDA-MB-231 breast and with NCI/ADR-RES ovarian was more than 100 µM throughout.
Consider `CCOC(=O)c1c(CN2CCN(c3ccccc3)CC2)n(-c2ccccc2)c2cc(Br)c(O)cc12`, for which the GI50 in the experiment on MCF7 breast is 4.01 µM; in the experiment with T-47D breast it was 7.59 µM; with MDA-MB-231 breast, 15.7 µM; in the experiment on NCI/ADR-RES ovarian, 12.4 µM. Further, the TGI was 47.5 µM with MCF7 breast, 37.9 µM with T-47D breast, 33.1 µM in the experiment with MDA-MB-231 breast and 41.7 µM in the experiment with NCI/ADR-RES ovarian.
In the case of `CCOC(=O)Sc1ncnc2nc[nH]c12`, the GI50 is 0.616 µM in the experiment with MCF7 breast, 0.799 µM with T-47D breast, 3.88 µM with MDA-MB-231 breast and 3.47 µM in the experiment with NCI/ADR-RES ovarian. Moreover, the TGI in the experiment on MCF7 breast, with T-47D breast, with MDA-MB-231 breast and in the experiment on NCI/ADR-RES ovarian was more than 100 µM each time.
For `Cc1ccc(/C(=C/C=C(C#N)C#N)Sc2ccc(Cl)cc2)cc1`, the GI50 is 5.24 µM in the experiment on MCF7 breast, 18.8 µM in the experiment on T-47D breast, 10.5 µM with MDA-MB-231 breast and 5.99 µM in the experiment with NCI/ADR-RES ovarian. Further, the TGI is more than 100 µM with MCF7 breast, 56.5 µM with T-47D breast, 28.4 µM with MDA-MB-231 breast and 19.9 µM with NCI/ADR-RES ovarian.
For the molecule `COc1ccc(C(=O)c2cc(C)c(OC)c(C)c2)c(OC)c1N(C(=O)C(Cl)Cl)C(=O)C(Cl)Cl`, the figures for the GI50 in the experiment on MCF7 breast, in the experiment with MDA-MB-231 breast and with NCI/ADR-RES ovarian were 0.0811 µM, 0.107 µM and 0.032 µM, respectively. In addition, the TGI in the experiment with MCF7 breast and in the experiment with MDA-MB-231 breast was more than 100 µM each time.
As to `CCCCCCCC(CC(=O)NC(CO)C(=O)NC(CO)CC(C)C)OC(=O)CC(CCCCCCC)OC(=O)CC(CCCCCCC)OC1OC(C)C(O)C(OC2OC(C)C(O)C(OC(C)=O)C2O)C1O` (stereo not drawn), the TGI with MCF7 breast was 24.7 µM; in the experiment with T-47D breast, 26.8 µM; with MDA-MB-231 breast it was 23.4 µM.
For the molecule `NC(CC(=O)OCc1ccccc1)C(=O)OCc1ccccc1` (stereo not drawn), the TGI in the experiment with MCF7 breast, in the experiment on T-47D breast and in the experiment on NCI/ADR-RES ovarian was more than 100 µM each time.
